≈ marks a conversion by molar mass, not a printed value.
Key:
Format in all cases: functional, cell-based
KB = experiment: Cytotoxicity against human KB cells after 1 to 11 days by MTT assay
HeLa = experiment: Cytotoxicity against human HeLa cells after 1 to 11 days by MTT assay
Daoy = experiment: Cytotoxicity against human DaOY cells after 1 to 11 days by MTT assay

| SMILES | IC50 (KB) [µg/mL] | IC50 (HeLa) [µg/mL] | IC50 (Daoy) [µg/mL] |
| --- | --- | --- | --- |
| C=C1C(=O)O[C@H]2/C=C(\C)CC/C=C(\C)CCC(=O)[C@]3(C)O[C@@H]3C[C@@H]12 [CRASSOCOLIDE N] | 4.7 (≈ 14.2 µM) | 4.7 (≈ 14.2 µM) | 2.8 (≈ 8.47 µM) |
| C=C1C(=O)O[C@H]2/C=C(\C)CC/C=C(\C)CC[C@H](OC(C)=O)/C(C)=C\C[C@@H]12 [CRASSOCOLIDE P] | > 20 | 10.8 (≈ 30.1 µM) | 1.9 (≈ 5.3 µM) |
| C=C1C(=O)O[C@H]2/C=C(\C)CC/C=C(\C)CCC(=O)/C(C)=C\C[C@@H]12 [CRASSOCOLIDE O] | > 20 | > 20 | 4.5 (≈ 14.3 µM) |
| CO[C@@]12[C@H](COC(N)=O)C3=C(C(=O)C(C)=C(N)C3=O)N1C[C@@H]1N[C@@H]12 [MITOMYCIN] | 0.08 (≈ 0.239 µM) | 0.06 (≈ 0.179 µM) | 0.05 (≈ 0.15 µM) |

Reference: ChEMBL document CHEMBL1921772, “Crassocolides N-P, three cembranoids from the Formosan soft coral Sarcophyton crassocaule” (Bioorg Med Chem Lett, 2011)
